Experimental data as given in the NIST ThermoML archive (doi:10.1016/j.jct.2014.06.030).
± gives the expanded uncertainty stated by the source.

Details: 101.33 kPa, Liquid; for speed of sound: Sing-around technique in a fixed-path interferometer; for mass density: Vibrating tube method

| speed of sound (298.15 K) | mass density (298.15 K) | speed of sound (303.15 K) | mass density (303.15 K) | speed of sound (308.15 K) | mass density (308.15 K) | Structure (SMILES) |
| --- | --- | --- | --- | --- | --- | --- |
| 1298.7 ± 1.4 m/s | 1077.3 ± 1 kg/m3 | 1280.7 ± 1.4 m/s | 1072.5 ± 1 kg/m3 | 1262.7 ± 1.4 m/s | 1067.6 ± 1 kg/m3 | Cc1ccccc1Cl [2-chlorotoluene] |
| 1431.6 ± 1.3 m/s | 999 ± 1 kg/m3 | 1417.4 ± 1.3 m/s | 994.65 ± 1 kg/m3 | 1402.2 ± 1.3 m/s | 990.3 ± 1 kg/m3 | CNC=O [N-methylformamide] |
| 1253.6 ± 1.2 m/s | 773.94 ± 1 kg/m3 | 1229.1 ± 1.2 m/s | 769.21 ± 1 kg/m3 | 1205.1 ± 1.2 m/s | 764.45 ± 1 kg/m3 | C1CCCCC1 [cyclohexane] |
| 1458.5 ± 1.2 m/s | 944.6 ± 1 kg/m3 | 1440.2 ± 1.2 m/s | 939.83 ± 1 kg/m3 | 1420.8 ± 1.2 m/s | 935.05 ± 1 kg/m3 | CN(C)C=O [dimethylformamide] |
| 1269.8 ± 1.2 m/s | 879.13 ± 1 kg/m3 | 1246.8 ± 1.2 m/s | 873.99 ± 1 kg/m3 | 1224.4 ± 1.2 m/s | 868.83 ± 1 kg/m3 | C1CCOCC1 [tetrahydropyran] |
